Measured values reported in PubChem BioAssay AID1378 (University of Pittsburgh Molecular Library Screening Center, 2008).
Activity calls are given as the source filed them. No rule for the calls is given here.

Biological target: RAC-alpha serine/threonine-protein kinase (Homo sapiens) (UniProt P31749)
Assay: off-target activity on human AKT1 kinase – biochemical, 57K library, IC50, selectivity assay for PKD inhibitor project, dose response (AID 1378)

RAC-alpha serine/threonine-protein kinase (Homo sapiens), sequence (P31749 whole entry, looked up): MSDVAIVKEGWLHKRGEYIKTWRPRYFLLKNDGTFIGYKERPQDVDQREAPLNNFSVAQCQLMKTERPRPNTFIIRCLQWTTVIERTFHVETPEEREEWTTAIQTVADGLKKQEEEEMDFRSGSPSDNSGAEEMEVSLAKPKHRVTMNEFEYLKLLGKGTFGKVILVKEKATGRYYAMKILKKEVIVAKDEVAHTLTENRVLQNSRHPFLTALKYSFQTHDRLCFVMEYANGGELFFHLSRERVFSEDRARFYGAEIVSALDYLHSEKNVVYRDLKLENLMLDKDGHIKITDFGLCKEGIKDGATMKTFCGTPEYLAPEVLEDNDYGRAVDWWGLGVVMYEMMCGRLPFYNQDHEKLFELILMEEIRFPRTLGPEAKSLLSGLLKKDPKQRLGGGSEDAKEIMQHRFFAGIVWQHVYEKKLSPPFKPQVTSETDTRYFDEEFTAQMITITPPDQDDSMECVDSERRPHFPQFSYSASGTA

IC50: > 100 µM (inactive)
SMILES: C/C(=N\Nc1ncc(Cl)cc1Cl)c1ccccn1
